# Reference: patent publication US20030078274A1, “Method of reducing neuronal injury or apoptosis” (priority 1999, published 2003)
# B1: MIP-1β: recombinant human MIP-1β, β-chemokine (protein, UniProt P13236 24-92, looked up)
# C-C motif chemokine 4: APMGSDPPTACCFSYTARKLPRNFVVDYYETSSLCSQPAVVFQTKRSKQVCADPSESWVQEYVYDLELN
# What was measured:
# [1] = tested on: retinal ganglion cells (RGCs); assay: Optic nerve axotomy model of glaucoma: RGC survival in vivo; parameters: species or system Long-Evans rats; details: MK801 intravitreal; 14 days post axotomy
# Excerpt: As a model for studying treatment of glaucoma, damaged (axotomized) retinal ganglion cells were employed. Specifically, transection of the optic nerve close to the cell body causes apoptotic death of retinal ganglion cells (RGCs), similar to that found in glaucoma. […] Three days later, the left optic nerve was intraorbitally transected 1 mm from the globe. One day after axotomy, no remarkable change in the fluorescence pattern of RGCs was seen compared to that of controls. RGC density, as assessed by the number of fluorescently-labeled cells, began to decline between 4 and 7 days post axotomy. By 14 days, a substantial number of fluorescently-labeled RGCs appeared to have been lost. Morphologically, in whole-mounted retinas stained with cresyl violet, ganglion cell layer (GCL) of unlesioned control retinas manifest no apoptotic profiles or pyknotic nuclei. In contrast, by 10 days after axotomy, multiple degenerating cell bodies with pyknotic nuclei were apparent in the GCL, and the cell density in this layer appeared to be greatly diminished. When hydroxystilbamidine fluorescence in the GCL was quantified, in unlesioned control retinas the mean RGC density was 2533±104 cells/mm^2 (mean±SD). Within 14 days of axotomy, the mean RGC density decreased to 348±107 (14% of control).
# (§1) One day after axotomy, activated (di-phosphorylated) p38 was visualized by immunocytochemistry in the RGC layer, but not in control retinas. By Western blotting, phosphorylated p38 was first detected 12 hours after axotomy and reached a maximum at 24 hours before decreasing. SB 203580 was administered intravitreally at the time of axotomy, and repeated at 5 days and 10 days.
# Retrograde labeling of retinal ganglion cells. Adult male Long-Evans rats weighing 200 to 250 g were obtained from a local breeder and, for all experimental manipulations, were anesthetized with 1-2% isoflurane and 70% N2O. RGCs were retrogradely labeled with hydroxystilbamidine (Molecular Probes, Eugene, Oreg., also known as Fluoro-Gold™) to allow accurate counting of cell bodies as described in Vorwerk et al., Invest. Ophthalmol. Vis. Sci. 40:813-816. Rats were anesthetized and placed in a small stereotactic instrument. The skull was exposed and kept dry. The bregma was identified and marked, and a small window was drilled above the right hemisphere, leaving the dura intact.
# Axotomy. Optic nerve axotomy was performed on the left eye 4 days after retrograde labeling. After incision of the dorsolateral conjunctiva, the lateral extraocular muscle was transected, and the optic nerve was exposed under a stereoscopic microscope. The optic nerve was then transected at a distance of about 1 mm from the eye bulb. During the operation, care was taken to avoid damage to the retinal blood supply.
# (§2) Drug application. Intravitreal injections were carried out using a 33-gauge needle attached to a 25 μl syringe following pupil dilation with 1% atropine sulfate. The tip of the needle was inserted through the dorsal limbus of the eye under stereomicroscopic visualization. Injections were completed over a period of 1 min. Intravitreal injections of SB 203580 (Calbiochem, San Diego, Calif.), MK801 (Research Biochemicals International, Natick, Mass.) or control solutions (as an equal volume of saline diluent) were performed on operated eyes immediately after axotomy, and repeated 5 and 10 days post axotomy.
# Quantification of axotomized RGC survival and histology. […]
# p38 = p38 phosphorylation/activation in retina after axotomy; type: in vivo, Long-Evans rats; details: MK801 intravitreal after axotomy
# Method: as §1, §2
# Immunohistochemistry. After enucleation, the eyes were immersed in fixative composed of 4% paraformaldehyde in phosphate-buffered saline (PBS; pH 7.4) at 4° C. Ten minutes later, the eyes were hemisected in the fixative, and the anterior segment, lens and vitreous body were discarded. The remaining posterior eyecup was kept in fresh fixative solution overnight at 4° C. The eyecup was then embedded in paraffin. […]
# [2] = tested on: neurons in rat cerebrocortical cultures (gp120-induced apoptosis); assay: gp120-induced neuronal apoptosis in rat cerebrocortical cultures; type: cell-based, Sprague-Dawley rats; details: for effect on neuronal apoptosis induced by gp120: gp120 200 pM, 24 h
# Method: The model used in the assays described below, i.e., rat cerebrocortical cultures, was prepared from embryos of Sprague-Dawley rats at day 15 to 17 of gestation. See Lei et al., Neuron 8:1087-1099 (1992) and Lipton et al., Nature 364:626-632 (1993). Cultures were used for experiments after 17 to 24 days in culture. […] Prior to some experiments, macrophages/microglia or neurons were depleted from the cultures by exposure to 7.5 mM L-leucine methyl ester or 2 mM N-methyl-D-aspartate (NMDA), respectively. See Lipton, NeuroReport 3:913-915 (1992). […] In some experiments, the Griess reaction was used to measure nitrite levels in the culture medium as an index of nitric oxide (NO) release. See Chao et al., Glia 16:276-284 (1996).
# Cultures were transferred into Earle's Balanced Salt Solution (EBSS) and incubated for 24 hours with gp120, chemokines, Tuftsin fragment 1-3, i.e., Thr-Lys-Pro (TKP), p38 MAPK inhibitor SB 203580 (i.e., 4-(4-fluorophenyl)-2-(4-methylsulfinylphenyl)-5-(4-pyridyl)imidazole, Calbiochem, San Diego, Calif.), or combinations thereof. Chemokines or TKP were applied for 5 minutes and SB 203580 for 15 minutes prior to gp120 exposure.
# TKP was obtained from Sigma (St. Louis, Mo.). Recombinant human MIP-1β, SDF-1α, SDF-1β, and recombinant rat RANTES were purchased from R&D systems ([…].) and Endogen (Woburn, Mass.), respectively. HIV-1 envelope glycoprotein gp120 from the strain SF2 was obtained from the NIH AIDS Research and Reference Reagent Program, Division of AIDS, NIAID, NIH. See Scandella et al., AIDS Res. Hum. Retroviruses 9:1233-1244 (1993). Additional gp120s from HIV-1 strains IIIB and RF2 were obtained from Genetech and the National Cancer Institute, respectively. TNFα, IFNγ, and IL-1β were from Genzyme (Cambridge, Mass.), Gibco BRL (Grand Island, N.Y.) and Endogen (Woburn, Mass.), respectively.
# Neuronal apoptosis in the above-described assays was assessed using a variety of techniques, e.g., staining of permeabilized cells with propidium iodide to determine apoptotic morphology, and a neuron-specific antibody (against NeuN or MAP-2) to identify cell type. In brief, cells were fixed for 5 minutes with ice-cold acetone at −20° C. and, after three washes in PBS, for 4 minutes with 2% (w/v) paraformaldehyde solution in PBS at room temperature (RT). Acetone-paraformaldehyde-fixed cells were permeabilized using 0.2% Tween 20 in PBS (PBST), and non-specific binding sites were blocked by incubation for 1 hour with a 10% solution of heat-inactivated goat serum in PBST. To specifically stain neurons, cells were then incubated for 4 hours at RT or overnight at 4° C. with 1:500 dilutions of anti-MAP-2 (Sigma) or anti-NeuN monoclonal antibody (mAb; Chemicon, Temecula, Calif.). Their respective non-specific isotype antibodies served as controls. After three washes, the cells were incubated in a secondary polyclonal antibody (pAb) conjugated either to fluorescein isothiocyanate (FITC) or to horseradish peroxidase (HRP). In the case of HRP-coupled pAb, diaminobenzidine (DAB) served as the color substrate developed by incubation in a mixture of 1 mg/ml DAB and 0.8% H2O2 at a ratio of 3:1. Cellular nuclei were subsequently stained with […] propidium iodide for 5 minutes in the dark, and then coverslips were mounted on glass slides. Experiments were replicated at least 3 times with triplicate values in each experiment. Statistical significance was judged by an analysis of variance (ANOVA) followed by a Scheffé or Bonferroni/Dunn post hoc test.
# [3] = tested on: neurons in rat cerebrocortical cultures; assay: Neuronal apoptosis assay, chemokine alone versus control; type: cell-based, Sprague-Dawley rats; details: α-chemokine 20-50 nM, 24 h
# Method: (§3) The model used in the assays described below, i.e., rat cerebrocortical cultures, was prepared from embryos of Sprague-Dawley rats at day 15 to 17 of gestation. See Lei et al., Neuron 8:1087-1099 (1992) and Lipton et al., Nature 364:626-632 (1993). Cultures were used for experiments after 17 to 24 days in culture. These cultures contain neurons, astrocytes, and macrophages/microglia, as determined with specific immunolabeling. Prior to some experiments, macrophages/microglia or neurons were depleted from the cultures by exposure to 7.5 mM L-leucine methyl ester or 2 mM N-methyl-D-aspartate (NMDA), respectively. See Lipton, NeuroReport 3:913-915 (1992). Absence of macrophages/microglia or neurons in these cultures was confirmed immunocytochemically, using antibodies to ED-1 and microtubule-associated protein-2 (MAP-2), respectively. In some experiments, the Griess reaction was used to measure nitrite levels in the culture medium as an index of nitric oxide (NO) release. See Chao et al., Glia 16:276-284 (1996). […]
# (§4) Neuronal apoptosis in the above-described assays was assessed using a variety of techniques, e.g., staining of permeabilized cells with propidium iodide to determine apoptotic morphology, and a neuron-specific antibody (against NeuN or MAP-2) to identify cell type. […]
# [4] = tested on: neurons (NMDA-induced apoptosis); assay: NMDA-induced neuronal apoptosis in cerebrocortical cultures; type: cell-based, Sprague-Dawley rats
# Method: (§5) The model used in the assays described below, i.e., rat cerebrocortical cultures, was prepared from embryos of Sprague-Dawley rats at day 15 to 17 of gestation. See Lei et al., Neuron 8:1087-1099 (1992) and Lipton et al., Nature 364:626-632 (1993). Cultures were used for experiments after 17 to 24 days in culture. These cultures contain neurons, astrocytes, and macrophages/microglia, as determined with specific immunolabeling. Prior to some experiments, macrophages/microglia or neurons were depleted from the cultures by exposure to 7.5 mM L-leucine methyl ester or 2 mM N-methyl-D-aspartate (NMDA), respectively. See Lipton, NeuroReport 3:913-915 (1992). Absence of macrophages/microglia or neurons in these cultures was confirmed immunocytochemically, using antibodies to ED-1 and microtubule-associated protein-2 (MAP-2), respectively. In some experiments, the Griess reaction was used to measure nitrite levels in the culture medium as an index of nitric oxide (NO) release. See Chao et al., Glia 16:276-284 (1996).
# as §4
# [5] = tested on: neurons in rat cerebrocortical cultures (SDF-1-induced apoptosis); assay: SDF-1-induced neuronal apoptosis in rat cerebrocortical cultures; type: cell-based, Sprague-Dawley rats; details: TKP
# Method: as §3, §4
# [6] = tested on: cytokine-activated astrocytes; assay: NO release (nitrite, Griess reaction) by cytokine-activated astrocytes; type: cell-based, Sprague-Dawley rats; details: in the absence of macrophages/microglia
# Method: as §5
# [7] = β-chemokine at 20 nM applied 5 min before gp120
molecule,measurement,setting,value
C[C@]12N[C@H](Cc3ccccc31)c1ccccc12 [MK801],number of surviving RGCs,[1],increased the number of surviving RGCs
same,p38 phosphorylation/activation,p38,inhibited p38 phosphorylation/activation in a dose-dependent manner
"COc1cccc(-c2cc(=O)c3ccccc3o2)c1N [PD 98059, 2′-amino-3′-methoxyflavone]",effect on gp120SF2-induced neuronal apoptosis,[2]; PD 98059 2 μM,only SB 203580 substantially attenuated
"S=C(S)N1CCCC1 [PDTC, pyrrolidine dithiocarbamate]",effect on gp120SF2-induced neuronal apoptosis,[2]; PDTC 5 μM,only SB 203580 substantially attenuated
RANTES,effect on neuronal apoptosis induced by gp120,[2]; [7],abrogated
SDF-1α,effect on neuronal apoptosis induced by gp120,[2]; α-chemokine at 20-50 nM,did not reduce neuronal damage or apoptosis
same,increase in neuronal apoptosis compared to control,[3],approximately 2 fold
Thr-Lys-Pro [TKP],effect on NMDA-induced neuronal apoptosis,[4],did not interfere
same,effect on gp120-induced neuronal apoptosis,"[2]; TKP 50 μM, applied 5 min before gp120",protected neurons from gp120-induced apoptosis
same,effect on SDF-1β-induced neuronal apoptosis,[5],not abrogated
same,effect on NO release by cytokine-activated astrocytes,[6],did not inhibit NO release
B1,effect on neuronal apoptosis induced by gp120,[2]; [7],abrogated
